Test results: ChEMBL document CHEMBL3046251, “3D-QSAR CoMFA and CoMSIA studies for design of potent human steroid 5-reductase inhibitors” (Med Chem Res, 2013)

Biological target: T1, 3-oxo-5-alpha-steroid 4-dehydrogenase 2 (Homo sapiens, UniProt P31213)
T1 sequence (P31213 whole entry): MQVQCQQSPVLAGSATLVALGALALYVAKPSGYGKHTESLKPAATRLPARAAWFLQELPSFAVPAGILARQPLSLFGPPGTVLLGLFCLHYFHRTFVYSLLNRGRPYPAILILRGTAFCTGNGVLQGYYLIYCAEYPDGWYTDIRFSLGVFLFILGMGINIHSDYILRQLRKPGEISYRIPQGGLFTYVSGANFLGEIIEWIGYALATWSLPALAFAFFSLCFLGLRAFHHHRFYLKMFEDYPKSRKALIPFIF
Experiment: Inhibition of Homo sapiens (human) Steroid 5-alpha-reductase type 2

| IC50 [nM] | SMILES |
| --- | --- |
| 1.8 | CC(C)(C)NC(=O)[C@H]1CC[C@H]2[C@@H]3CNC4=CC(=O)C=C[C@]4(C)[C@H]3CC[C@]12C |
| 2.3 | CCN(CC)C(=O)[C@H]1CC[C@H]2[C@@H]3CN(C)C4=CC(=O)CC[C@]4(C)[C@H]3CC[C@]12C |
| 0.5 | CC(C)c1cc(C(C)C)c(C(=O)[C@H]2CC[C@H]3[C@@H]4CNC5=CC(=O)CC[C@]5(C)[C@H]4CC[C@]23C)c(C(C)C)c1 |
| 1.3 | CCCN1C[C@H]2[C@@H]3CC[C@H](C(=O)NC(c4ccccc4)c4ccccc4)[C@@]3(C)CC[C@@H]2[C@@]2(C)C=CC(=O)C=C12 |
| 0.2 | CN1C[C@H]2[C@@H]3CC[C@H](C(=O)NC(c4ccccc4)c4ccccc4)[C@@]3(C)CC[C@@H]2[C@@]2(C)CCC(=O)C=C12 |
| 0.3 | CN1C[C@H]2[C@@H]3CC[C@H](C(=O)NC4C5CC6CC(C5)CC4C6)[C@@]3(C)CC[C@@H]2[C@@]2(C)CCC(=O)C=C12 (some centres undefined) |
| 1.4 | CC1=C2NC[C@H]3[C@@H]4CC[C@H](C(=O)NC(C)(C)C)[C@@]4(C)CC[C@@H]3[C@@]2(C)CCC1=O |
| 6.7 | CN1C[C@H]2[C@@H]3CC[C@H](C(=O)NC(C)(C)C)[C@@]3(C)CC[C@@H]2[C@@]2(C)C=CC(=O)C=C12 |
| 8.1 | CCN(CC)C(=O)[C@H]1CC[C@H]2[C@@H]3CNC4=C(C)C(=O)C=C[C@]4(C)[C@H]3CC[C@]12C |
| 2.1 | CCN(CC)C(=O)[C@H]1CC[C@H]2[C@@H]3CNC4=C(Br)C(=O)CC[C@]4(C)[C@H]3CC[C@]12C |
| 5.7 | CCN(CC)C(=O)[C@H]1CC[C@H]2[C@@H]3CN(C)C4=CC(=O)C=C[C@]4(C)[C@H]3CC[C@]12C |
| 4.9 | CCN(CC)C(=O)[C@H]1CC[C@H]2[C@@H]3CN(C(C)C)C4=CC(=O)CC[C@]4(C)[C@H]3CC[C@]12C |
| 42 | CCN(CC)C(=O)[C@H]1CC[C@H]2[C@@H]3CN(C#N)C4=CC(=O)CC[C@]4(C)[C@H]3CC[C@]12C |
| 1.5 | CCN(CC)C(=O)[C@H]1CC[C@H]2[C@@H]3CNC4=CC(=O)CC[C@]4(C)[C@H]3CC[C@]12C |
| 3.5 | CCN(CC)C(=O)[C@H]1CC[C@H]2[C@@H]3CNC4=CC(=O)C=C[C@]4(C)[C@H]3CC[C@]12C |
| 0.2 | C[C@]12CC[C@H]3[C@@H](CNC4=CC(=O)CC[C@@]43C)[C@@H]1CC[C@@H]2C(=O)Nc1cc(C(F)(F)F)cc(C(F)(F)F)c1 |
| 0.5 | CC(C)(C)c1ccc(-c2ccc(C(F)(F)F)cc2NC(=O)[C@H]2CC[C@H]3[C@@H]4CNC5=CC(=O)CC[C@]5(C)[C@H]4CC[C@]23C)cc1 |
| 0.2 | CC(C)(C)c1ccccc1NC(=O)[C@H]1CC[C@H]2[C@@H]3CNC4=CC(=O)CC[C@]4(C)[C@H]3CC[C@]12C |
| 0.08 | CC(C)CC(=O)[C@H]1CC[C@H]2[C@@H]3CNC4=CC(=O)CC[C@]4(C)[C@H]3CC[C@]12C |
| 7.1 | C[C@]12CC[C@H]3[C@@H](CNC4=CC(=O)CC[C@@]43C)[C@@H]1CC[C@@H]2C(=O)N1CCOCC1 |
| 0.23 | C[C@]12CC[C@H]3[C@@H](CNC4=CC(=O)CC[C@@]43C)[C@@H]1CC[C@@H]2C(=O)NN(c1ccccc1)c1ccccc1 |
| 0.4 | C[C@]12CC[C@H]3[C@@H](CNC4=CC(=O)CC[C@@]43C)[C@@H]1CC[C@@H]2C(=O)NC(C1CCCCC1)C1CCCCC1 |
| 0.12 | C[C@]12CC[C@H]3[C@@H](CNC4=CC(=O)CC[C@@]43C)[C@@H]1CC[C@@H]2C(=O)NC(c1ccc(Cl)cc1)c1ccc(Cl)cc1 |
| 0.09 | C[C@]12CC[C@H]3[C@@H](CNC4=CC(=O)CC[C@@]43C)[C@@H]1CC[C@@H]2C(=O)NC(c1ccccc1)(c1ccccc1)c1ccccc1 |
| 0.09 | C[C@]12CC[C@H]3[C@@H](CNC4=CC(=O)CC[C@@]43C)[C@@H]1CC[C@@H]2C(=O)NC(c1ccccc1)c1ccccc1 |
| 2.8 | CCN(C)C(=O)[C@H]1CC[C@H]2[C@@H]3CNC4=CC(=O)CC[C@]4(C)[C@H]3CC[C@]12C |
| 0.36 | CC(C)N(C(=O)[C@H]1CC[C@H]2[C@@H]3CNC4=CC(=O)CC[C@]4(C)[C@H]3CC[C@]12C)C(C)C |
| 0.04 | C[C@]12CC[C@H]3[C@@H](CNC4=CC(=O)CC[C@@]43C)[C@@H]1CC[C@@H]2C(=O)OC1C2CC3CC(C2)CC1C3 (some centres undefined) |
| 2.4 | CON(C)C(=O)[C@H]1CC[C@H]2[C@@H]3CNC4=CC(=O)CC[C@]4(C)[C@H]3CC[C@]12C |
